In the supplement of paper PMC11061612:

Key:
[1] = tested on: JHH-1 (Hepatocellular Carcinoma); assay: Bliss excess, mean over the matrix (fraction); higher = more synergy
Summary of the method: (§1)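 After 24 hours at 37°C and 5% CO2 in 1536-well plates, cells in DMEM/F12 or RPMI plus 10% FBS received two-drug dose matrices for 72 hours. Viability came from CellTiter-Glo 2.0 luminescence and was scaled as inhibition, anchored at 0 by vehicle wells and at 1 by blank wells. Combination Emax is taken as the second-highest inhibition in the matrix, and Bliss excess as the observed combination effect less EA + EB − EA·EB, with EA and EB the single-agent effects.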

[2] = tested on: OVTOKO (Ovarian Carcinoma); assay: as above
Summary of the method: as §1

[3] = tested on: AsPC-1 (Pancreatic Carcinoma); assay: combination Emax (second highest fraction inhibited in the dose matrix, 72 h); higher = more inhibition; extreme values may be limits of the assay
Summary of the method: as §1

[4] = tested on: Becker (Low Grade Glioma); assay: as above
Summary of the method: as §1

CHL-1 (Melanoma) = assay: as above
Summary of the method: as §1

[5] = tested on: COLO-684 (Endometrial Carcinoma); assay: as above
Summary of the method: as §1

[6] = tested on: Calu-6 (Non-Small Cell Lung Carcinoma); assay: as above
Summary of the method: as §1

[7] = tested on: EB-3 (Burkitt's Lymphoma); assay: as above
Summary of the method: as §1

[8] = tested on: FLO-1 (Esophageal Adenocarcinoma); assay: as above
Summary of the method: as §1

[9] = tested on: HTC-C3 (Thyroid Gland Carcinoma); assay: as above
Summary of the method: as §1

[10] = tested on: JHH-1 (Hepatocellular Carcinoma); assay: as above
Summary of the method: as §1

KYM-1 (Rhabdomyosarcoma) = assay: as above
Summary of the method: as §1

[11] = tested on: KYSE-70 (Esophageal Squamous Cell Carcinoma); assay: as above
Summary of the method: as §1

[12] = tested on: NCI-H1155 (Non-Small Cell Lung Carcinoma); assay: as above
Summary of the method: as §1

[13] = tested on: NCI-H1563 (Lung Adenocarcinoma); assay: as above
Summary of the method: as §1

[14] = tested on: NCI-H1623 (Lung Adenocarcinoma); assay: as above
Summary of the method: as §1

[15] = tested on: NCI-H1755 (Lung Adenocarcinoma); assay: as above
Summary of the method: as §1

[16] = tested on: OCI-AML5 (Acute Myeloid Leukemia); assay: as above
Summary of the method: as §1

[17] = tested on: RMG-I (Ovarian Carcinoma); assay: as above
Summary of the method: as §1

[18] = tested on: RPMI-8866 (Chronic Myelogenous Leukemia); assay: as above
Summary of the method: as §1
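Wherever Bliss excess, mean over the matrix is given: after 72 h of two-drug dosing.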

SMILES	Bliss excess [1]	Bliss excess [2]	combination Emax [3]	combination Emax [4]	combination Emax (CHL-1 (Melanoma))	combination Emax [5]	combination Emax [6]	combination Emax [7]	combination Emax [8]	combination Emax [9]	combination Emax [10]	combination Emax (KYM-1 (Rhabdomyosarcoma))	combination Emax [11]	combination Emax [12]	combination Emax [13]	combination Emax [14]	combination Emax [15]	combination Emax [16]	combination Emax [17]	combination Emax [18]
CC(=O)c1c(C)c2cnc(Nc3ccc(N4CCNCC4)cn3)nc2n(C2CCCC2)c1=O [Palbociclib] + CC1(C)CCC(CN2CCN(c3ccc(C(=O)NS(=O)(=O)c4ccc(NCC5CCOCC5)c([N+](=O)[O-])c4)c(Oc4cnc5[nH]ccc5c4)c3)CC2)=C(c2ccc(Cl)cc2)C1 [Venetoclax] (first compound max 10 µM, 7x7, partner max 1 µM)	-0.0601	-0.0114	0.104	0.249	0.0898	0.193	0.353	0.329	0.495	0.189	0.138	0.863	0.11	0.241	0.313	0.248	0.477	0.837	0.277	0.754
CC(=O)c1c(C)c2cnc(Nc3ccc(N4CCNCC4)cn3)nc2n(C2CCCC2)c1=O [Palbociclib] + Cc1c2c(nn1C)CSCc1cc(n(C)n1)CSc1cc(c3ccccc3c1)OCCCc1c(C(=O)O)n(C)c3c-2c(Cl)ccc13 [AZD5991] (first compound max 10 µM, 7x7, partner max 1 µM)	-0.0111	-0.0315	0.199	0.428	0.691	0.321	0.33	0.435	0.603	0.248	0.289	0.947	0.157	0.237	0.609	0.818	0.524	0.517	0.306	0.725
CC(=O)c1c(C)c2cnc(Nc3ccc(N4CCNCC4)cn3)nc2n(C2CCCC2)c1=O [Palbociclib] + Cn1cnc2c(F)c(Nc3ccc(Br)cc3Cl)c(C(=O)NOCCO)cc21 [Selumetinib] (first compound max 10 µM, 7x7, partner max 10 µM)	-0.0693	-0.0503	0.386	0.368	0.101	0.153	0.707	0.374	0.531	0.728	0.201	0.93	0.182	0.21	0.261	0.52	0.543	0.833	0.353	0.806
COc1cccc(OCCCN)c1-c1cc(Nc2cnc(C#N)cn2)n[nH]1 [Prexasertib] + C=CCn1c(=O)c2cnc(Nc3ccc(N4CCN(C)CC4)cc3)nc2n1-c1cccc(C(C)(C)O)n1 [AZD1775] (first compound max 1 µM, partner max 1 µM)	0.0105	-0.0519	0.41	0.733	0.845	0.856	0.806	0.818	0.94	0.911	0.656	0.966	0.777	0.963	0.482	0.841	0.926	1	0.727	1
COc1cccc(OCCCN)c1-c1cc(Nc2cnc(C#N)cn2)n[nH]1 [Prexasertib] + CCc1c2c(nc3ccc(O)cc13)-c1cc3c(c(=O)n1C2)COC(=O)[C@]3(O)CC [SN-38] (first compound max 1 µM, 7x7, partner max 0.3 µM)	-0.11	-0.0192	0.41	0.816	0.877	0.956	0.862	0.87	0.918	0.966	0.75	0.97	0.869	0.993	0.629	0.987	0.952	1	0.505	1
COc1cccc(OCCCN)c1-c1cc(Nc2cnc(C#N)cn2)n[nH]1 [Prexasertib] + CN(C)CCCOc1ccc(-c2ccc3ncc4c(c3c2)n(C2CCOCC2)c(=O)n4C)cn1 [AZD0156] (first compound max 1 µM, 7x7, partner max 1 µM)	0.0785	0.0594	0.444	0.711	0.814	0.854	0.745	0.838	0.724	0.768	0.677	0.952	0.618	0.885	0.352	0.804	0.936	1	0.698	1
COc1cccc(OCCCN)c1-c1cc(Nc2cnc(C#N)cn2)n[nH]1 [Prexasertib] + C[C@@H]1COCCN1C2=NC(=NC(=C2)C3(CC3)[S@](=N)(=O)C)C4=C5C=CNC5=NC=C4 [AZD6738] (first compound max 1 µM, 7x7, partner max 10 µM)	0.0009	0.0006	0.416	0.733	0.884	0.864	0.772	0.83	0.763	0.842	0.579	0.956	0.602	0.93	0.262	0.827	0.912	0.988	0.629	1
